Measured values: patent publication US20060247260A1, “Bis (hetero) aryl carboxamide derivatives for use as PG12 antagonists” (BAYER HEALTHCARE AG, priority 2003, published 2006)

Molecular target: T1, PGI2 receptor (Homo sapiens, UniProt P43119)
T1 construct: host or cells: HEL 92.1.7 human erythroleukemia cells (whole cells)
T1 sequence (P43119 whole entry): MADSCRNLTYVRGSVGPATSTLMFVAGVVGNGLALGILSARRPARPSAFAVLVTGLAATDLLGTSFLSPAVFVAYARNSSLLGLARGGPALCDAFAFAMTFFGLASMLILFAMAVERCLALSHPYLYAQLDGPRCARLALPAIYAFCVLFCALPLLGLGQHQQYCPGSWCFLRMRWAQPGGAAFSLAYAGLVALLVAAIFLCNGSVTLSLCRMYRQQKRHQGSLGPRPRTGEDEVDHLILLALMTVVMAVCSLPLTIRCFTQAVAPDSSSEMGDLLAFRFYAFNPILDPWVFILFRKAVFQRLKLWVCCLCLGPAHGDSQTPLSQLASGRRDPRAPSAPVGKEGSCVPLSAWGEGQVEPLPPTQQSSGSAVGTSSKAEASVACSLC
Test: PGI2 receptor binding/cAMP in HEL cells (in vitro activity grade)
Settings: compounds of purity about 40 to 90%
Description: [Measurement of the [^3H]-Iloprost Binding to HEL Cells] (Assay 1) A human erythloleukemia cell line, HEL 92.1.7, was purchased from American Type Culture Correction and maintained in RPMI-1640 medium (Gibco BRL) supplemented with 10% fetal calf serum (FCS), 2 mM glutamine, 4.5 g/L glucose, 10 mM Hepes, 1 mM sodium pyruvate, 100 U/ml penicillin, and 100 μg/ml streptomycin in a humidified 5% CO2 atmosphere at 37° C. Cells were collected with centrifugation and washed with binding assay buffer (BAB: 50 mM Tris-HCl, 5 mM MgCl2 (pH 7.5)). Cells were suspended at the density of 6.25×10^6 cells/ml in BAB, and one million cells in 160 μl aliquot of cell suspension were put in a well of 96 well plate (Falcon). Then, 20 μl of compound solution, 100 μM of iloprost (for non-specific binding), or buffer alone (total binding), diluted with 1% DMSO in BAB was added. Finally, another 20 μl containing [^3H]-iloprost (0.02 μCi, 0.5-1 pmol) in BAB was added and incubated at room temperature for 30 min with a gentle shaking. Cell suspension was then transferred to a well of MultiScreen plate with GF/C glass filters (Millipore) to harvest cells. Cells were washed twice with 200 μl of ice-cold BAB and the plate was kept at 55° C. for 30 min to dry filters. The filter in the well was punched out to a counting tube and 2 ml of Ultima Gold XR Packard) was added. [^3H]-radio activity in the filter was measured by a liquid scintillation counter (Beckman, USA). [Iloprost-Induced cAMP Production Assay in HEL Cells] (Assay 2) HEL cells were collected with centrifugation and washed with cAMP assay buffer (CAB: Hank's balanced salt solution, 17 mM Hepes, 0.1% bovine serum albumin, 1 mM IBMX, 0.4% DMSO, and 1 mM L-ascorbic acid sodium salt (pH 7.4)). Cells were suspended at the density of 2.5×10^5 cells/ml in CAB, and twenty thousand cells in 80 μl aliquot of cell suspension were put in a well of 96 well plate (Falcon). Then, 10 μl of compound solution diluted with 1% DMSO in CAB or buffer alone was added. The plate was incubated at 37° C. for 30 min. Then, another 10 μl containing 100 nM iloprost in CAB or buffer alone was added and further incubated at 37° C. for 30 min. cAMP content in the well was measured by, a cAMP ELISA kit (Applied Biosystems, USA). The data corresponds to the compounds as yielded by solid phase synthesis and thus to levels of purity of about 40 to 90%. For practical reasons, the compounds are grouped in three classes of activity as follows: In vitro activity grade=A≦0.1 μM<B≦1 μM<C
In the case of O=C(NC(Cc1ccccc1)C(=O)O)c1cc(-c2ccc(OCc3ccccc3)cc2)[nH]n1 (centres unmarked) [Example 1-1, 2-{[5-(4-Benzyloxyphenyl)-1H-pyrazole-3-carbonyl]amino}-3-phenylpropionic acid], the “In vitro activity grade” value is reported as “A (A≦0.1 μM)”. For O=C(NC(Cc1ccccc1)C(=O)O)c1cc(-c2ccc(OCc3ccccc3)cc2)on1 (centres unmarked) [Example 1-2, 2-{[5-(4-Benzyloxyphenyl)isoxazole-3-carbonyl]amino}-3-phenyl-propionic acid], the “In vitro activity grade” value was “A (A≦0.1 μM)”. In the case of O=C(NC(Cc1ccccc1)C(=O)O)c1ccc(-c2ccc(OCc3ccccc3)cc2)s1 (centres unmarked) [Example 2-1, 2-{[5-(4-Benzyloxyphenyl)thiophene-2-carbonyl]amino}-3-phenyl-propionic acid], the “In vitro activity grade” value is reported as “A (A≦0.1 μM)”. With O=C(NC(Cc1ccccc1)C(=O)O)c1ccc(-c2ccc(OCc3ccccc3)cc2)cc1 (centres unmarked) [Example 3-1, 2-[(4′-Benzyloxy-biphenyl-4-carbonyl)-amino]-3-phenyl-propionic acid] the “In vitro activity grade” value was “A (A≦0.1 μM)”. In the case of O=C(NC(Cc1ccccc1)C(=O)O)c1ccc(-c2ccc(OCc3ccccc3)cc2)nc1 (centres unmarked) [Example 4-1, 2-{[6-(4-benzyloxy-phenyl)-pyridine-3-carbonyl]-amino}-3-phenyl-propionic acid], the “In vitro activity grade” value is reported as “A (A≦0.1 μM)”. In the case of O=C(NC(Cc1ccccc1)C(=O)O)c1ccc(-c2cnc(OCc3ccccc3)nc2)cc1 (centres unmarked) [Example 5-1, 2-[4-(2-Benzyloxypyrimidin-5-yl)benzoylamino]-3-phenylpropionic acid], the “In vitro activity grade” value is reported as “A (A≦0.1 μM)”. For O=C(NC(Cc1ccccc1)C(=O)[O-])c1ccc(-c2ccc(OCc3ccccc3)nc2)cc1.[Na+] (centres unmarked) [Example 6-1, Sodium 2-[4-(6-benzyloxypyridin-3-yl)benzoylamino]-3-phenylpropionate], the “In vitro activity grade” value was “A (A≦0.1 μM)”. For Cc1cccc(COc2ccc(-c3ccc(C(=O)NC(Cc4ccccc4)C(=O)O)cc3)cc2)c1 (centres unmarked) [Example 8-1, 2-{[4′-(3-Methylbenzyloxy)biphenyl-4-carbonyl]amino}-3-phenylpropionic acid], the “In vitro activity grade” value was “A (A≦0.1 μM)”. With O=C(NC(Cc1ccccc1)C(=O)O)c1ccc(-c2ccc(OCc3ccc([N+](=O)[O-])cc3)cc2)cc1 (centres unmarked) [Example 8-2] the “In vitro activity grade” value was “B (0.1 μM<B≦1 μM)”. In the case of O=C(NC(Cc1ccccc1)C(=O)O)c1ccc(-c2ccc(OCc3ccccc3F)cc2)cc1 (centres unmarked) [Example 8-3], the “In vitro activity grade” value is reported as “A (A≦0.1 μM)”. For O=C(NC(Cc1ccccc1)C(=O)O)c1ccc(-c2ccc(OCc3cccc(F)c3)cc2)cc1 (centres unmarked) [Example 8-4], the “In vitro activity grade” value was “A (A≦0.1 μM)”. In the case of O=C(NC(Cc1ccccc1)C(=O)O)c1ccc(-c2ccc(OCc3ccc(F)cc3)cc2)cc1 (centres unmarked) [Example 8-5], the “In vitro activity grade” value is reported as “A (A≦0.1 μM)”. For O=C(NC(Cc1ccccc1)C(=O)O)c1ccc(-c2ccc(OCc3ccc(F)c(F)c3)cc2)cc1 (centres unmarked) [Example 8-6], the “In vitro activity grade” value was “A (A≦0.1 μM)”. With O=C(NC(Cc1ccccc1)C(=O)O)c1ccc(-c2ccc(OCc3c(Cl)cccc3Cl)cc2)cc1 (centres unmarked) [Example 8-7] the “In vitro activity grade” value was “A (A≦0.1 μM)”. In the case of O=C(NC(Cc1ccccc1)C(=O)O)c1ccc(-c2ccc(OCc3cc(Cl)cc(Cl)c3)cc2)cc1 (centres unmarked) [Example 8-8], the “In vitro activity grade” value is reported as “C (1 μM<C)”. For O=C(NC(Cc1ccccc1)C(=O)O)c1ccc(-c2ccc(OCc3ccc(Cl)cc3Cl)cc2)cc1 (centres unmarked) [Example 8-9], the “In vitro activity grade” value was “C (1 μM<C)”. In the case of O=C(NC(Cc1ccccc1)C(=O)O)c1ccc(-c2ccc(OCc3ccc(Cl)c(Cl)c3)cc2)cc1 (centres unmarked) [Example 8-10], the “In vitro activity grade” value is reported as “B (0.1 μM<B≦1 μM)”. In the case of O=C(NC(Cc1ccccc1)C(=O)O)c1ccc(-c2ccc(OCc3cccc(Cl)c3Cl)cc2)cc1 (centres unmarked) [Example 8-11], the “In vitro activity grade” value is reported as “A (A≦0.1 μM)”. In the case of O=C(NC(Cc1ccccc1)C(=O)O)c1ccc(-c2ccc(OCc3c(F)cccc3F)cc2)cc1 (centres unmarked) [Example 8-12], the “In vitro activity grade” value is reported as “B (0.1 μM<B≦1 μM)”. For COc1ccccc1COc1ccc(-c2ccc(C(=O)NC(Cc3ccccc3)C(=O)O)cc2)cc1 (centres unmarked) [Example 8-13], the “In vitro activity grade” value was “B (0.1 μM<B≦1 μM)”. For COc1cccc(COc2ccc(-c3ccc(C(=O)NC(Cc4ccccc4)C(=O)O)cc3)cc2)c1 (centres unmarked) [Example 8-14], the “In vitro activity grade” value was “A (A≦0.1 μM)”. In the case of COc1ccc(COc2ccc(-c3ccc(C(=O)NC(Cc4ccccc4)C(=O)O)cc3)cc2)cc1 (centres unmarked) [Example 8-15], the “In vitro activity grade” value is reported as “B (0.1 μM<B≦1 μM)”. In the case of COc1cc(COc2ccc(-c3ccc(C(=O)NC(Cc4ccccc4)C(=O)O)cc3)cc2)cc(OC)c1OC (centres unmarked) [Example 8-16], the “In vitro activity grade” value is reported as “C (1 μM<C)”. In the case of O=C(NC(Cc1ccccc1)C(=O)O)c1ccc(-c2ccc(OCc3ccccc3Cl)cc2)cc1 (centres unmarked) [Example 8-17], the “In vitro activity grade” value is reported as “A (A≦0.1 μM)”. For O=C(NC(Cc1ccccc1)C(=O)O)c1ccc(-c2ccc(OCc3ccc(F)cc3F)cc2)cc1 (centres unmarked) [Example 8-18], the “In vitro activity grade” value was “A (A≦0.1 μM)”. With Cc1ccc(COc2ccc(-c3ccc(C(=O)NC(Cc4ccccc4)C(=O)O)cc3)cc2)cc1 (centres unmarked) [Example 8-19] the “In vitro activity grade” value was “B (0.1 μM<B≦1 μM)”. With O=C(NC(Cc1ccccc1)C(=O)O)c1ccc(-c2ccc(OCc3cccc(C(F)(F)F)c3)cc2)cc1 (centres unmarked) [Example 8-20] the “In vitro activity grade” value was “B (0.1 μM<B≦1 μM)”. In the case of O=C(NC(Cc1ccccc1)C(=O)O)c1ccc(-c2ccc(OCc3ccc(C(F)(F)F)cc3)cc2)cc1 (centres unmarked) [Example 8-21], the “In vitro activity grade” value is reported as “C (1 μM<C)”. With O=C(NC(Cc1ccccc1)C(=O)O)c1ccc(-c2ccc(OCc3cccc(Cl)c3)cc2)cc1 (centres unmarked) [Example 8-22] the “In vitro activity grade” value was “A (A≦0.1 μM)”. With COc1cc(COc2ccc(-c3ccc(C(=O)NC(Cc4ccccc4)C(=O)O)cc3)cc2)cc(OC)c1 (centres unmarked) [Example 8-23] the “In vitro activity grade” value was “A (A≦0.1 μM)”. With Cc1ccccc1COc1ccc(-c2ccc(C(=O)NC(Cc3ccccc3)C(=O)O)cc2)cc1 (centres unmarked) [Example 8-24] the “In vitro activity grade” value was “A (A≦0.1 μM)”. In the case of Cc1cc(C)cc(COc2ccc(-c3ccc(C(=O)NC(Cc4ccccc4)C(=O)O)cc3)cc2)c1 (centres unmarked) [Example 8-25], the “In vitro activity grade” value is reported as “B (0.1 μM<B≦1 μM)”. For Cc1ccc(C)c(COc2ccc(-c3ccc(C(=O)NC(Cc4ccccc4)C(=O)O)cc3)cc2)c1 (centres unmarked) [Example 8-26], the “In vitro activity grade” value was “B (0.1 μM<B≦1 μM)”. With Cc1ccc(COc2ccc(-c3ccc(C(=O)NC(Cc4ccccc4)C(=O)O)cc3)cc2)c(C)c1 (centres unmarked) [Example 8-27] the “In vitro activity grade” value was “B (0.1 μM<B≦1 μM)”. With O=C(NC(Cc1ccccc1)C(=O)O)c1ccc(-c2ccc(OCc3cccc([N+](=O)[O-])c3)cc2)cc1 (centres unmarked) [Example 8-28] the “In vitro activity grade” value was “A (A≦0.1 μM)”. With O=C(NC(Cc1ccccc1)C(=O)O)c1ccc(-c2ccc(OCc3ccccc3OC(F)(F)F)cc2)cc1 (centres unmarked) [Example 8-29] the “In vitro activity grade” value was “C (1 μM<C)”. With O=C(NC(Cc1ccccc1)C(=O)O)c1ccc(-c2ccc(OCc3cccc(OC(F)(F)F)c3)cc2)cc1 (centres unmarked) [Example 8-30] the “In vitro activity grade” value was “C (1 μM<C)”. With O=C(NC(Cc1ccccc1)C(=O)O)c1ccc(-c2ccc(OCc3ccc(OC(F)(F)F)cc3)cc2)cc1 (centres unmarked) [Example 8-31] the “In vitro activity grade” value was “C (1 μM<C)”. For O=C(NC(Cc1ccccc1)C(=O)O)c1ccc(-c2ccc(OCc3ccc(Cl)cc3)cc2)cc1 (centres unmarked) [Example 8-32], the “In vitro activity grade” value was “B (0.1 μM<B≦1 μM)”. For O=C(NC(Cc1ccccc1)C(=O)O)c1ccc(-c2ccc(OCC3CCCCC3)cc2)cc1 (centres unmarked) [Example 8-33], the “In vitro activity grade” value was “B (0.1 μM<B≦1 μM)”. In the case of O=C(NC(Cc1ccccc1)C(=O)O)c1ccc(-c2ccc(OCCCn3cccc3)cc2)cc1 (centres unmarked) [Example 8-34], the “In vitro activity grade” value is reported as “B (0.1 μM<B≦1 μM)”. With O=C(NC(Cc1ccccc1)C(=O)O)c1ccc(-c2ccc(OCCc3ccccc3)cc2)cc1 (centres unmarked) [Example 8-35] the “In vitro activity grade” value was “A (A≦0.1 μM)”. For CC(Oc1ccc(-c2ccc(C(=O)NC(Cc3ccccc3)C(=O)O)cc2)cc1)c1ccccc1 (centres unmarked) [Example 8-36], the “In vitro activity grade” value was “B (0.1 μM<B≦1 μM)”. For O=C(NC(Cc1ccccc1)C(=O)O)c1ccc(-c2ccc(OCCCc3ccccc3)cc2)cc1 (centres unmarked) [Example 8-37], the “In vitro activity grade” value was “B (0.1 μM<B≦1 μM)”. With CCCCOc1ccc(-c2ccc(C(=O)NC(Cc3ccccc3)C(=O)O)cc2)cc1 (centres unmarked) [Example 8-38] the “In vitro activity grade” value was “B (0.1 μM<B≦1 μM)”. For Nc1cccc(COc2ccc(-c3ccc(C(=O)NC(Cc4ccccc4)C(=O)O)cc3)cc2)c1 (centres unmarked) [Example 8-39], the “In vitro activity grade” value was “A (A≦0.1 μM)”. With O=C(NC(Cc1ccccc1)C(=O)O)c1ccc(-c2ccc(OCCN3CCCCC3)cc2)cc1 (centres unmarked) [Example 8-40] the “In vitro activity grade” value was “C (1 μM<C)”.

Test system: not given
Test: not given
Settings: not given
In the case of O=C(NC(Cc1ccccc1)C(=O)O)c1cc(-c2ccc(OCc3ccccc3)cc2)[nH]n1 (centres unmarked) [Example 1-1, 2-{[5-(4-Benzyloxyphenyl)-1H-pyrazole-3-carbonyl]amino}-3-phenylpropionic acid], the melting point is reported as 196 to 200 °C. Compound O=C(NC(Cc1ccccc1)C(=O)O)c1ccc(-c2ccc(OCc3ccccc3)cc2)s1 (centres unmarked) [Example 2-1, 2-{[5-(4-Benzyloxyphenyl)thiophene-2-carbonyl]amino}-3-phenyl-propionic acid] has a melting point of 215 to 216 °C. With O=C(NC(Cc1ccccc1)C(=O)[O-])c1ccc(-c2ccc(OCc3ccccc3)nc2)cc1.[Na+] (centres unmarked) [Example 6-1, Sodium 2-[4-(6-benzyloxypyridin-3-yl)benzoylamino]-3-phenylpropionate] the melting point was 240 to 242 °C.
